Source: paper PMC6458995, “MAP4K4 Inhibition Promotes Survival of Human Stem Cell-Derived Cardiomyocytes and Reduces Infarct Size In Vivo” (Cell Stem Cell, 2019)

Tests used:
Experiment in all cases: Dundee kinase panel
Type in all cases: biochemical
Conditions in all cases: read-out: residual activity
IRAK1 = biological target: T1, IRAK1 (Homo sapiens, UniProt P51617)
T1 construct: lines 1-140) and Reaction Biology
Protocol: (§1) Compounds were screened at 1 μM. For key hits, pIC50 values were then determined by HTRF as above. […] Stability in mouse and human liver microsomes was determined by Cyprotex.

SIK2 = biological target: T2, SIK2 (Homo sapiens, UniProt Q9H0K1)
T2 construct: lines 1-140) and Reaction Biology
Protocol: as §1

S6K1 = biological target: T3, S6K1 (Homo sapiens, UniProt P23443)
T3 construct: lines 1-140) and Reaction Biology
Protocol: as §1

PAK4 = biological target: T4, PAK4 (Homo sapiens, UniProt O96013)
T4 construct: lines 1-140) and Reaction Biology
Protocol: as §1

CDK2-Cyclin A = biological target: T5, CDK2-Cyclin A (Homo sapiens, UniProt P24941)
T5 construct: lines 1-140) and Reaction Biology
Protocol: as §1

ERK2 = biological target: T6, ERK2 (Homo sapiens, UniProt P28482)
T6 construct: lines 1-140) and Reaction Biology
Protocol: as §1

DYRK2 = biological target: T7, DYRK2 (Homo sapiens, UniProt Q92630)
T7 construct: lines 1-140) and Reaction Biology
T7 sequence (Q92630 1-601): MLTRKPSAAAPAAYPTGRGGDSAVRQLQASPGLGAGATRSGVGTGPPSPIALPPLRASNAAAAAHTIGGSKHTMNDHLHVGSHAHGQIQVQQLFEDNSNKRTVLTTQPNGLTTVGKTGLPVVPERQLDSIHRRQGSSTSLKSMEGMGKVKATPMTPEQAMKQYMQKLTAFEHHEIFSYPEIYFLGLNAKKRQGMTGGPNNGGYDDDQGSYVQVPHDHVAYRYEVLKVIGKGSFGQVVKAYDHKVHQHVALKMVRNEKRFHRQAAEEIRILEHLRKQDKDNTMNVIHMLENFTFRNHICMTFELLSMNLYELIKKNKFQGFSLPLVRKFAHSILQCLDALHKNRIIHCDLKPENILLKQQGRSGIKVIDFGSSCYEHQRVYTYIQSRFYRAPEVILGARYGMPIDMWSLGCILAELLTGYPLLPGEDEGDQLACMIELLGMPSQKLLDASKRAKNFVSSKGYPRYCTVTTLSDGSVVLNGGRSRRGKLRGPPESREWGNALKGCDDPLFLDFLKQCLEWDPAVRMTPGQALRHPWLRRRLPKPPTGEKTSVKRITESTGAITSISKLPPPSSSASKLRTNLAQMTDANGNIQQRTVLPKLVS
Protocol: as §1

MLK3 = biological target: T8, MLK3 (Homo sapiens, UniProt Q16584)
T8 construct: lines 1-140) and Reaction Biology
Protocol: as §1

RIPK2 = biological target: T9, RIPK2 (Homo sapiens, UniProt O43353)
T9 construct: lines 1-140) and Reaction Biology
Protocol: as §1

JNK3 = biological target: T10, JNK3 (Homo sapiens, UniProt P53779)
T10 construct: lines 1-140) and Reaction Biology
Protocol: as §1

DAPK1 = biological target: T11, DAPK1 (Homo sapiens, UniProt P53355)
T11 construct: lines 1-140) and Reaction Biology
Protocol: as §1

YES1 = biological target: T12, YES1 (Homo sapiens, UniProt P07947)
T12 construct: lines 1-140) and Reaction Biology
Protocol: as §1

MPSK1 = biological target: T13, MPSK1 (Homo sapiens, UniProt O75716)
T13 construct: lines 1-140) and Reaction Biology
Protocol: as §1

MEKK1 = biological target: T14, MEKK1 (Homo sapiens, UniProt Q13233)
T14 construct: lines 1-140) and Reaction Biology
Protocol: as §1

SGK1 = biological target: T15, SGK1 (Homo sapiens, UniProt O00141)
T15 construct: lines 1-140) and Reaction Biology
T15 sequence (O00141 1-431): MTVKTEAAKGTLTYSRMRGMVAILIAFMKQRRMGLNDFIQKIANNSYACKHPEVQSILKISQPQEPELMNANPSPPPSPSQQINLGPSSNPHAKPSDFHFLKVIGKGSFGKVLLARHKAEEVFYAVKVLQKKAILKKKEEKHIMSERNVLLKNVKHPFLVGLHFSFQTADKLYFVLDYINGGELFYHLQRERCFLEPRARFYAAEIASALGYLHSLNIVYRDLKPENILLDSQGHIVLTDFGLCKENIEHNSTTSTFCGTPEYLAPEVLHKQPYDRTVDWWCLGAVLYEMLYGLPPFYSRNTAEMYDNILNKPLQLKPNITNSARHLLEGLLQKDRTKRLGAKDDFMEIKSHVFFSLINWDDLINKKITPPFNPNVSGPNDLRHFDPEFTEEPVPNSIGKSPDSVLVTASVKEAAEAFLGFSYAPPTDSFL
Protocol: as §1

p38d MAPK = biological target: T16, p38d MAPK (Homo sapiens, UniProt O15264)
T16 construct: lines 1-140) and Reaction Biology
T16 sequence (O15264 1-365): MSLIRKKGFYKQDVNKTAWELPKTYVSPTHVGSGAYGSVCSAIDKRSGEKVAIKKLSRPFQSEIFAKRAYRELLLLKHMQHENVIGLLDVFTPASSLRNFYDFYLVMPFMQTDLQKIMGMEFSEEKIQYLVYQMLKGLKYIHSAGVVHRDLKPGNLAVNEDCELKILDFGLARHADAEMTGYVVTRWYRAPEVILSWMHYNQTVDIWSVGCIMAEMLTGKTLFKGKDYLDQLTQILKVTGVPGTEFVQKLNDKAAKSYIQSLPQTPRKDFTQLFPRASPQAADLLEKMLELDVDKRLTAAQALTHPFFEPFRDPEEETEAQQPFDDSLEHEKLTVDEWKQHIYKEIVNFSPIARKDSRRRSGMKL
Protocol: as §1

MKK1 = biological target: T17, MKK1 (Homo sapiens, UniProt Q02750)
T17 construct: lines 1-140) and Reaction Biology
Protocol: as §1

PKCγ = biological target: T18, PKCγ (Homo sapiens, UniProt P05129)
T18 construct: lines 1-140) and Reaction Biology
Protocol: as §1

CHK2 = biological target: T19, CHK2 (Homo sapiens, UniProt O96017)
T19 construct: lines 1-140) and Reaction Biology
Protocol: as §1

PKCa = biological target: T20, PKCa (Homo sapiens, UniProt P17252)
T20 construct: lines 1-140) and Reaction Biology
Protocol: as §1

EPH-A4 = biological target: T21, EPH-A4 (Homo sapiens, UniProt P54764)
T21 construct: lines 1-140) and Reaction Biology
Protocol: as §1

MST3 = biological target: T22, MST3 (Homo sapiens, UniProt Q9Y6E0)
T22 construct: lines 1-140) and Reaction Biology
Protocol: as §1

CAMK1 = biological target: T23, CAMK1 (Homo sapiens, UniProt Q14012)
T23 construct: lines 1-140) and Reaction Biology
Protocol: as §1

MAPKAP-K2 = biological target: T24, MAPKAP-K2 (Homo sapiens, UniProt P49137)
T24 construct: lines 1-140) and Reaction Biology
Protocol: as §1

LCK = biological target: T25, LCK (Homo sapiens, UniProt P06239)
T25 construct: lines 1-140) and Reaction Biology
Protocol: as §1

T3 sequence (P23443 whole entry): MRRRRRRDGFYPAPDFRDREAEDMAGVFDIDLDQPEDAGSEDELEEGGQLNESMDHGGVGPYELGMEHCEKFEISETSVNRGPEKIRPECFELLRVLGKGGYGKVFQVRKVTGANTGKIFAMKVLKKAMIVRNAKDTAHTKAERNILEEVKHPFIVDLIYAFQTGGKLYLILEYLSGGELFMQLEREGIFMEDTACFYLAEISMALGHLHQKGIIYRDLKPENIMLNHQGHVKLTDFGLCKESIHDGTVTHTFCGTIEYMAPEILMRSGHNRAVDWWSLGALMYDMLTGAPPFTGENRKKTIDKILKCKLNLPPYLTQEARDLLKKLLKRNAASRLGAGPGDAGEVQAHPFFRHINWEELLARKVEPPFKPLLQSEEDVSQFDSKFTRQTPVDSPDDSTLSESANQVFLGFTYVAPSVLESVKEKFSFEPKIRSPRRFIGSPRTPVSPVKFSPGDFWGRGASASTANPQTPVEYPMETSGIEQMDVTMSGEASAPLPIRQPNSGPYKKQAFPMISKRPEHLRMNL
T25 sequence (P06239 whole entry): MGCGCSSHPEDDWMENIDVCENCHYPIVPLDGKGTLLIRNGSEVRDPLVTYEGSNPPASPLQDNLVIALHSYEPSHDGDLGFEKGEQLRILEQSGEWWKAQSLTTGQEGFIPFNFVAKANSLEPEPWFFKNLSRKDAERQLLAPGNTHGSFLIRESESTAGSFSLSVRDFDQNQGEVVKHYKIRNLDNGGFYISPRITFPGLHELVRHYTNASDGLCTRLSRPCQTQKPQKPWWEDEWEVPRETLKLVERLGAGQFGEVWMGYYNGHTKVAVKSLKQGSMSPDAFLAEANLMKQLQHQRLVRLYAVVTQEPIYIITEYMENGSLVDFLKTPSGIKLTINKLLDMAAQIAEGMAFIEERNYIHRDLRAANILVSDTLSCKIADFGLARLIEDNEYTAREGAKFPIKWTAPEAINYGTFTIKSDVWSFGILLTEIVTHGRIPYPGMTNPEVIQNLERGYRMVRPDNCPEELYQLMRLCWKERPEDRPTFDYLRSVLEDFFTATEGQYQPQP
T9 sequence (O43353 whole entry): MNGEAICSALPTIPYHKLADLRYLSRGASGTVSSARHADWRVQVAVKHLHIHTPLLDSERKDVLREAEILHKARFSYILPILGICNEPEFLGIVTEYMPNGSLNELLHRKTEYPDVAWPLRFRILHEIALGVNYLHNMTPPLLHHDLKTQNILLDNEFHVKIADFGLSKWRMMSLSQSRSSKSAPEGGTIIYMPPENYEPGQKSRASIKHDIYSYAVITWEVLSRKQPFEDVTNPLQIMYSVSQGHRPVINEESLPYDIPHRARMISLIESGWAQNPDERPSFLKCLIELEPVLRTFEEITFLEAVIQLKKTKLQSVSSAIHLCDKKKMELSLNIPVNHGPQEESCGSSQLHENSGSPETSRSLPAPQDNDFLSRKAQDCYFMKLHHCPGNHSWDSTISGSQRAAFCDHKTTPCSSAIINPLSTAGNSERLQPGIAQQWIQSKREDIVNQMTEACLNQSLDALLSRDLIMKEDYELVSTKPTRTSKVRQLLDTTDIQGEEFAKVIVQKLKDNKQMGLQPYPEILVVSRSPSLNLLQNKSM
T19 sequence (O96017 whole entry): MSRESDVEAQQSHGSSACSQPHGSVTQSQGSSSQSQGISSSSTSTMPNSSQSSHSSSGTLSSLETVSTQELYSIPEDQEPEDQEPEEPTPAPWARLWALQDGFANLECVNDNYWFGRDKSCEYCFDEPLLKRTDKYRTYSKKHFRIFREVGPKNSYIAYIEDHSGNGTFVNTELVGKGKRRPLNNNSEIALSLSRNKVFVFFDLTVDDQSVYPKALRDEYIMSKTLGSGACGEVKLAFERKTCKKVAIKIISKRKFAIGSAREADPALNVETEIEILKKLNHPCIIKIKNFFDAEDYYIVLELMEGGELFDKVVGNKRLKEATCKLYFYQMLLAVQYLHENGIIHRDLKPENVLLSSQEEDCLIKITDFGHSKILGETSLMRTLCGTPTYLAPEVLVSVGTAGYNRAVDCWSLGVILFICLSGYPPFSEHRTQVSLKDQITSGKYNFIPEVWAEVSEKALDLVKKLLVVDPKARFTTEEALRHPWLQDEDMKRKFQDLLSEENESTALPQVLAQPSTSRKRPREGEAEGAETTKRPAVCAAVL
T24 sequence (P49137 whole entry): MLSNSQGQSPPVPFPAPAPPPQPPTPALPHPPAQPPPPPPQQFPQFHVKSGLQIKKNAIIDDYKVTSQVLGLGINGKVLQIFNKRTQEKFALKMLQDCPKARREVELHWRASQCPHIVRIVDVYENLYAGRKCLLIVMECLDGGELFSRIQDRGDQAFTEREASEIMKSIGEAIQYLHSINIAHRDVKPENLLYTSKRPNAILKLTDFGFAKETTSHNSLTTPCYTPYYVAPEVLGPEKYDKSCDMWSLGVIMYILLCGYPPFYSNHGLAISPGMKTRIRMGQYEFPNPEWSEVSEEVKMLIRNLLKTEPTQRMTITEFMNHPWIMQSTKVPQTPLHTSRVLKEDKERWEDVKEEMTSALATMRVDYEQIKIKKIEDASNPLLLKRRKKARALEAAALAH
T6 sequence (P28482 whole entry): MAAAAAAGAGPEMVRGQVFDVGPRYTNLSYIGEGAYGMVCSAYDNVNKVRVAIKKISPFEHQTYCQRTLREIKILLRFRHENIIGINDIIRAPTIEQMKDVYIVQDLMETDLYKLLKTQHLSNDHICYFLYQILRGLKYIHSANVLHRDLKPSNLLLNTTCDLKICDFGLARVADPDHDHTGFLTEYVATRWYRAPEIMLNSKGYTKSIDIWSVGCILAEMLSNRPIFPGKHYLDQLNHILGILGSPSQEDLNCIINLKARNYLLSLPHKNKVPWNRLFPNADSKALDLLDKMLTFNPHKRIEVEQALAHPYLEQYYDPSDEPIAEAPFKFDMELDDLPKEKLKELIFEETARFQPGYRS
T21 sequence (P54764 20-986): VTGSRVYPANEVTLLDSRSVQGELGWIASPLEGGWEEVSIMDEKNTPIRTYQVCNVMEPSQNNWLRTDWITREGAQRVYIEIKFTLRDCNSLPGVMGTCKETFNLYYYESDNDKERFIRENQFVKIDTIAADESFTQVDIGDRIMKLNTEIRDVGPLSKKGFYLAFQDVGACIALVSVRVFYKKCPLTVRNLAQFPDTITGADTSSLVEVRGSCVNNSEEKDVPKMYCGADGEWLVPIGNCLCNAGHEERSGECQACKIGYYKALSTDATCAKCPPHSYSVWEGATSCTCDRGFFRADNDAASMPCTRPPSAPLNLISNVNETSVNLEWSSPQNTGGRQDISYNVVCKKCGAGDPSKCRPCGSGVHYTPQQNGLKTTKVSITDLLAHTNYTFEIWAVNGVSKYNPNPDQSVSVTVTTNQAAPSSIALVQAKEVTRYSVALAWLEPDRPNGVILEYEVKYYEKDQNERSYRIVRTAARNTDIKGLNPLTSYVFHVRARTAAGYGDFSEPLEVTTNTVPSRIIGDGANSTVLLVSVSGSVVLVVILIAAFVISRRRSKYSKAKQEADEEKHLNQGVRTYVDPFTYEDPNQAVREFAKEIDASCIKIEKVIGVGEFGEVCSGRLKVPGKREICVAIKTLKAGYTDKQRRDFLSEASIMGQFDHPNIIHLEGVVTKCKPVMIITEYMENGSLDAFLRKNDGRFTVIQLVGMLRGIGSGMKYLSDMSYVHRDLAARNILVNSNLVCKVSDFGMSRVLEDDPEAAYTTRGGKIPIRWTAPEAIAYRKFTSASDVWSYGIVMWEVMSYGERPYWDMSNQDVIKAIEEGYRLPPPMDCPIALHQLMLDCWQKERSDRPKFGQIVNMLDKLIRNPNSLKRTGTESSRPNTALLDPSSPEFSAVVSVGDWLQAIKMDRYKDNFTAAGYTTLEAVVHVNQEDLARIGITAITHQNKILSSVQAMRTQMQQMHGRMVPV
T2 sequence (Q9H0K1 whole entry): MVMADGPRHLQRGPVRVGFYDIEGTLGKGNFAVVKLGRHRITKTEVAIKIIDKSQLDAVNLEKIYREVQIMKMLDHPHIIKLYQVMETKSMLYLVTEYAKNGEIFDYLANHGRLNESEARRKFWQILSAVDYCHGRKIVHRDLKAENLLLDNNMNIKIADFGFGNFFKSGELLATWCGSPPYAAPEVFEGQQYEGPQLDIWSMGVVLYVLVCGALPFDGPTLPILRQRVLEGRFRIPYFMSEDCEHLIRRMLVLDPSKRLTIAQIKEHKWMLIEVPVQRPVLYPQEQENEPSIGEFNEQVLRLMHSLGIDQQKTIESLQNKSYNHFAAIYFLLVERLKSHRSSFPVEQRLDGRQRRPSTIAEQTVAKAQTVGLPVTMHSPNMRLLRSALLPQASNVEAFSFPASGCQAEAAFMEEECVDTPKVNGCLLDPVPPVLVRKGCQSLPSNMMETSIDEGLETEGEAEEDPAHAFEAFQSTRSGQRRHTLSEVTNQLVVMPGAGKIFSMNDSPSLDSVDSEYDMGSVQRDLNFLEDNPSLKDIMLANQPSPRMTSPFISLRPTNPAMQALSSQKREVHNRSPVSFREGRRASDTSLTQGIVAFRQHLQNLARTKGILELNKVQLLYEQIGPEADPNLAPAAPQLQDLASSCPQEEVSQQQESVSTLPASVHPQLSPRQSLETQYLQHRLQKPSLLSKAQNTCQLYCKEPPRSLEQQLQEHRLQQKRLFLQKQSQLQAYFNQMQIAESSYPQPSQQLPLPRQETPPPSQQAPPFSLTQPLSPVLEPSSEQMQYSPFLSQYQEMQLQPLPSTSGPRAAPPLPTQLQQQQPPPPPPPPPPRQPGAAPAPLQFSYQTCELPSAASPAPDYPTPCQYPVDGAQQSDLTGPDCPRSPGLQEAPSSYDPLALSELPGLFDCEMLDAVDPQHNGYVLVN

## COCCOc1ccc(-c2cn(-c3ccccc3)c3nc[nH]c(=O)c23)cc1 [DMX-5804, 5-[4-(2-methoxy-ethoxy)-phenyl]-7-phenyl-3,7-dihydro-pyrrolo[2,3-d]pyrimidin-4-one]
IRAK1
  remaining activity at 1 µM: 100%
SIK2
  remaining activity at 1 µM: 90%
S6K1
  remaining activity at 1 µM: 121%
PAK4
  remaining activity at 1 µM: 100%
CDK2-Cyclin A
  remaining activity at 1 µM: 104%
ERK2
  remaining activity at 1 µM: 76%
DYRK2
  remaining activity at 1 µM: 115%
MLK3
  remaining activity at 1 µM: 12%
RIPK2
  remaining activity at 1 µM: 89%
JNK3
  remaining activity at 1 µM: 127%
DAPK1
  remaining activity at 1 µM: 133%
YES1
  remaining activity at 1 µM: 96%
MPSK1
  remaining activity at 1 µM: 103%
MEKK1
  remaining activity at 1 µM: 111%
SGK1
  remaining activity at 1 µM: 104%
p38d MAPK
  remaining activity at 1 µM: 107%
MKK1
  remaining activity at 1 µM: 113%
PKCγ
  remaining activity at 1 µM: 94%
CHK2
  remaining activity at 1 µM: 69%
PKCa
  remaining activity at 1 µM: 116%
EPH-A4
  remaining activity at 1 µM: 105%
MST3
  remaining activity at 1 µM: 95%
CAMK1
  remaining activity at 1 µM: 114%
MAPKAP-K2
  remaining activity at 1 µM: 105%
LCK
  remaining activity at 1 µM: 109%
